This note sets out measurements from patent US11166959B2, “Isofuranone compounds useful as HPK1 inhibitors” (BRISTOL-MYERS SQUIBB COMPANY, priority 2017, dated 2021).

One assay concerns the target T1, IRAK4 (Homo sapiens, UniProt Q9NWZ3).
T1 construct: 1 nM IRAK4 (160-460); purchased SignalChem M24016
T1 sequence (Q9NWZ3 160-460): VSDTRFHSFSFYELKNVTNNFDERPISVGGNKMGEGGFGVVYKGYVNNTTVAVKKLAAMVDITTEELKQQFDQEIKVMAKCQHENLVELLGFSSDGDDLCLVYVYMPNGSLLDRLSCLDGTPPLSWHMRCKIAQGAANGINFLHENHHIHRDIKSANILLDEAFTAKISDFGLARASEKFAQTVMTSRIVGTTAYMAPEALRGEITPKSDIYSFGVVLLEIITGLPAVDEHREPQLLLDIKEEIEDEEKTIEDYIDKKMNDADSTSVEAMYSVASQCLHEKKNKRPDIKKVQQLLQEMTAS
The assay can be described thus: IRAK4 Inhibition Assay (kinase reaction, Caliper capillary electrophoresis). It counts as biochemical. The note with it: 500 μM ATP, 11 concentrations.

The target in the next assay is T2, HPK1 (Homo sapiens, UniProt Q92918).
T2 construct: purchased SignalChem M23-11G
T2 sequence (Q92918 1-346 limits assumed): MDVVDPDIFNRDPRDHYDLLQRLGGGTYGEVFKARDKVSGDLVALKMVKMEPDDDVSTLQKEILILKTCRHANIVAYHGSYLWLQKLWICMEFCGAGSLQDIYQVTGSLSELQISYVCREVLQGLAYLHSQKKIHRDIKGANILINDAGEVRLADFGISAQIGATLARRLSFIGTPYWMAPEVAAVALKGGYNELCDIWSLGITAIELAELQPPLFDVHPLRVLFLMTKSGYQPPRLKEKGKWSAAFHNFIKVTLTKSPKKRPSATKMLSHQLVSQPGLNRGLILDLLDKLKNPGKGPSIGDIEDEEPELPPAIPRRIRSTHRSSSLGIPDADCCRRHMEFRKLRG
The assay is described as follows: HPK1 Inhibition Assay (kinase reaction, Caliper capillary electrophoresis). It counts as biochemical. The note with it: for IC50: 0.625 nM HPK1, 22 μM ATP, 11 concentrations, read-out: HPK1 IC50; for IRAK4/HPK1 Ratio: ratio of the IRAK4 IC50 value to the HPK1 IC50 value. The procedure, abridged: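 Kinase reactions ran 3 h and were stopped with 1 mM EDTA, with enzyme level and time set for at most 20-30% peptide substrate conversion. Phosphorylated and unphosphorylated peptide were separated by capillary electrophoresis to measure conversion. IC50 derived from 11 compound concentrations.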

By IC50 is commonly meant the concentration needed to halve the response being measured. Regarding `CC1(C)OC(=O)c2ccc(Nc3ncc(C(=O)NCC4CC(F)(F)C4)c(N[C@H](CO)c4ccccc4)n3)cc21` [Example 4, N-[(3,3-difluorocyclobutyl)methyl]-2-[(3,3-dimethyl-1-oxo-1,3-dihydro-2-benzofuran-5-yl)amino]-4-{[(1S)-2-hydroxy-1-phenylethyl]amino}pyrimidine-5-carboxamide], the IC50 on IRAK4 fell in the range of 250 to 1000 nM. At HPK1, the IC50 was below 50 nM and the “IRAK4/HPK1 Ratio” value is given as “B (B=10 to 50)”.

In turn, `CC1(C)OC(=O)c2ccc(Nc3ncc(-c4nc(-c5cccnc5)no4)c(N[C@H](CO)c4ccccc4)n3)cc21` [Example 43, 5-[(4-{[(1S)-2-hydroxy-1-phenylethyl]amino}-5-[3-(pyridin-3-yl)-1,2,4-oxadiazol-5-yl]pyrimidin-2-yl)amino]-3,3-dimethyl-1,3-dihydro-2-benzofuran-1-one] gave a half-inhibitory concentration (IC50) against IRAK4 of 250 to 1000 nM. In addition, at HPK1, the half-inhibitory concentration (IC50) was below 50 nM and the “IRAK4/HPK1 Ratio” value is recorded as “C (C=>50)”.

For the molecule `CC(C)(O)c1ccccc1CNc1nc(Nc2ccc3c(c2)C(C)(C)OC3=O)ncc1-c1nc(C2CC2)no1` [Example 73, 5-{[5-(3-cyclopropyl-1,2,4-oxadiazol-5-yl)-4-({[2-(2-hydroxypropan-2-yl)phenyl]methyl}amino)pyrimidin-2-yl]amino}-3,3-dimethyl-1,3-dihydro-2-benzofuran-1-one], the values for the IC50 at IRAK4 and on HPK1 were 250 to 1000 nM and 50 to 250 nM, respectively. Besides, the “IRAK4/HPK1 Ratio” value on HPK1 was “B (B=10 to 50)”.

`COC(=O)NC12CC(c3noc(-c4cnc(Nc5ccc6c(c5)C(C)(C)OC6=O)nc4N[C@H](CO)c4ccccc4)n3)(C1)C2` [Example 50, Methyl N-[3-(5-{2-[(3,3-dimethyl-1-oxo-1,3-dihydro-2-benzofuran-5-yl)amino]-4-{[(1S)-2-hydroxy-1-phenylethyl]amino}pyrimidin-5-yl}-1,2,4-oxadiazol-3-yl)bicyclo[1.1.1]pentan-1-yl]carbamate]: the IC50 against IRAK4 is 250 to 1000 nM; on HPK1 it was below 50 nM. In addition, the “IRAK4/HPK1 Ratio” value at HPK1 is given as “C (C=>50)”.

As for `COCCNC(=O)c1cnc(Nc2ccc3c(c2)C(C)(C)OC3=O)nc1N[C@H](CO)c1ccccc1` [Example 8, 2-[(3,3-dimethyl-1-oxo-1,3-dihydro-2-benzofuran-5-yl)amino]-4-{[(1S)-2-hydroxy-1-phenylethyl]amino}-N-(2-methoxyethyl)pyrimidine-5-carboxamide], the figures for the half-maximal inhibitory concentration (IC50) at IRAK4 and on HPK1 were 50 to 250 nM and below 50 nM, respectively. In addition, the “IRAK4/HPK1 Ratio” value at HPK1 is “B (B=10 to 50)”.

For the molecule `CC1(C)OC(=O)c2ccc(Nc3ncc(-c4nnc(C(C)(O)C(F)(F)F)o4)c(N[C@H](CO)c4ccccc4)n3)cc21` (stereo partly drawn) [Example 65, 5-[(4-{[(1S)-2-hydroxy-1-phenylethyl]amino}-5-[5-(1,1,1-trifluoro-2-hydroxypropan-2-yl)-1,3,4-oxadiazol-2-yl]pyrimidin-2-yl)amino]-3,3-dimethyl-1,3-dihydro-2-benzofuran-1-one], the IC50 at IRAK4 lay within 250 to 1000 nM. Moreover, on HPK1, the half-inhibitory concentration (IC50) is below 50 nM and the “IRAK4/HPK1 Ratio” value is recorded as “B (B=10 to 50)”.

For `CC(=O)NC12CC(c3noc(-c4cnc(Nc5ccc6c(c5)C(C)(C)OC6=O)nc4N[C@H](CO)c4ccccc4)n3)(C1)C2` [Example 49, N-[3-(5-{2-[(3,3-dimethyl-1-oxo-1,3-dihydro-2-benzofuran-5-yl)amino]-4-{[(1S)-2-hydroxy-1-phenylethyl]amino}pyrimidin-5-yl}-1,2,4-oxadiazol-3-yl)bicyclo[1.1.1]penta-1-yl]acetamide], the IC50 against IRAK4 is 250 to 1000 nM; at HPK1, below 50 nM. Moreover, the “IRAK4/HPK1 Ratio” value on HPK1 is reported as “C (C=>50)”.

In the case of `CC1(C)OC(=O)c2ccc(Nc3cc(N[C@H](CO)c4ccccc4)c(-c4nc(C5CC5)no4)cn3)cc21` [Example 78, 5-{[5-(3-cyclopropyl-1,2,4-oxadiazol-5-yl)-4-{[(1S)-2-hydroxy-1-phenylethyl]amino}pyridin-2-yl]amino}-3,3-dimethyl-1,3-dihydro-2-benzofuran-1-one], the IC50 at IRAK4 lay in the range of 250 to 1000 nM. Besides, on HPK1, the IC50 is 50 to 250 nM and the “IRAK4/HPK1 Ratio” value is “B (B=10 to 50)”.

For `CC(NC(=O)c1cnc(Nc2ccc3c(c2)C(C)(C)OC3=O)nc1N[C@H](CO)c1ccccc1)c1ccccc1` (stereo partly drawn) [Example 15, 2-[(3,3-dimethyl-1-oxo-1,3-dihydro-2-benzofuran-5-yl)amino]-4-{[(1S)-2-hydroxy-1-phenylethyl]amino}-N-(1-phenylethyl)pyrimidine-5-carboxamide], the IC50 is 250 to 1000 nM against IRAK4 and 50 to 250 nM on HPK1. The “IRAK4/HPK1 Ratio” value at HPK1 is listed as “B (B=10 to 50)”.

Take `CC1(C)OC(=O)c2ccc(Nc3cc(N[C@H](CO)c4ccccc4)c(-c4nnc(C5(C#N)CC5)o4)cn3)nc21` [Example 88, 1-{5-[6-({7,7-dimethyl-5-oxo-5H,7H-furo[3,4-b]pyridin-2-yl}amino)-4-{[(1S)-2-hydroxy-1-phenylethyl]amino}pyridin-3-yl]-1,3,4-oxadiazol-2-yl}cyclopropane-1-carbonitrile]: the IC50 against IRAK4 was 250 to 1000 nM. Also, on HPK1, the IC50 is below 50 nM and the “IRAK4/HPK1 Ratio” value is listed as “C (C=>50)”.

Take `CC1(C)OC(=O)c2ccc(Nc3ncc(C(=O)NCc4ccccn4)c(N[C@H](CO)c4ccccc4)n3)cc21` [Example 6, 2-[(3,3-dimethyl-1-oxo-1,3-dihydro-2-benzofuran-5-yl)amino]-4-{[(1S)-2-hydroxy-1-phenylethyl]amino}-N-[(pyridin-2-yl)methyl]pyrimidine-5-carboxamide]: the IC50 on IRAK4 lay within 50 to 250 nM. Moreover, at HPK1, the IC50 was below 50 nM and the “IRAK4/HPK1 Ratio” value is on record as “B (B=10 to 50)”.

Consider `CC1(C)OC(=O)c2ccc(Nc3cc(N[C@H](CO)c4ccccc4)c(-c4nnc(C5CC5)o4)cn3)nc21` [Example 86, 2-{[5-(5-cyclopropyl-1,3,4-oxadiazol-2-yl)-4-{[(1S)-2-hydroxy-1-phenylethyl]amino}pyridin-2-yl]amino}-7,7-dimethyl-5H,7H-furo[3,4-b]pyridin-5-one], for which the 50% inhibitory concentration (IC50) against IRAK4 is 50 to 250 nM. At HPK1, the IC50 is below 50 nM and the “IRAK4/HPK1 Ratio” value is given as “B (B=10 to 50)”.

Consider `CC1(C)OC(=O)c2ccc(Nc3ncc(-c4nc(C5CC5)no4)c(Nc4ccc5[nH]ncc5c4)n3)cc21` [Example 75, 5-{[5-(3-cyclopropyl-1,2,4-oxadiazol-5-yl)-4-[(1H-indazol-5-yl)amino]pyrimidin-2-yl]amino}-3,3-dimethyl-1,3-dihydro-2-benzofuran-1-one], for which the IC50 against IRAK4 lay within 250 to 1000 nM. Besides, at HPK1, the concentration for half-maximal inhibition (IC50) was 50 to 250 nM and the “IRAK4/HPK1 Ratio” value is reported as “B (B=10 to 50)”.

In the case of `CC1(C)OC(=O)c2ccc(Nc3cc(NCc4nccs4)c(-c4nc(C56CCN(CC5)CC6)no4)cn3)nc21` [Example 84, 2-{[5-(3-{1-azabicyclo[2.2.2]octan-4-yl}-1,2,4-oxadiazol-5-yl)-4-{[(1,3-thiazol-2-yl)methyl]amino}pyridin-2-yl]amino}-7,7-dimethyl-5H,7H-furo[3,4-b]pyridin-5-one], the half-maximal inhibitory concentration (IC50) against IRAK4 is 250 to 1000 nM; at HPK1, below 50 nM. In addition, the “IRAK4/HPK1 Ratio” value at HPK1 is “C (C=>50)”.

At IRAK4, `CC(C)(CCCCO)c1noc(-c2cnc(Nc3ccc4c(c3)C(C)(C)OC4=O)nc2N[C@H](CO)c2ccccc2)n1` [Example 37, 5-[(4-{[(1S)-2-hydroxy-1-phenylethyl]amino}-5-[3-(6-hydroxy-2-methylhexan-2-yl)-1,2,4-oxadiazol-5-yl]pyrimidin-2-yl)amino]-3,3-dimethyl-1,3-dihydro-2-benzofuran-1-one] came in with a 50% inhibitory concentration (IC50) of 250 to 1000 nM. Besides, at HPK1, the IC50 was below 50 nM and the “IRAK4/HPK1 Ratio” value was “C (C=>50)”.

Take `CC1(C)OC(=O)c2ccc(Nc3cc(N[C@H](CO)C4CC4)c(-c4nc(C5CC5)no4)cn3)cc21` [Example 79, 5-{[5-(3-cyclopropyl-1,2,4-oxadiazol-5-yl)-4-{[(1S)-1-cyclopropyl-2-hydroxyethyl]amino}pyridin-2-yl]amino}-3,3-dimethyl-1,3-dihydro-2-benzofuran-1-one]: the IC50 on IRAK4 is 250 to 1000 nM; at HPK1 it was 50 to 250 nM. In addition, the “IRAK4/HPK1 Ratio” value at HPK1 is “B (B=10 to 50)”.

For `CC1(C)OC(=O)c2ccc(Nc3ncc(C(=O)NCC4(CN5CCOCC5)CC4)c(N[C@H](CO)c4ccccc4)n3)cc21` [Example 26, 2-[(3,3-dimethyl-1-oxo-1,3-dihydro-2-benzofuran-5-yl)amino]-4-{[(1S)-2-hydroxy-1-phenylethyl]amino}-N-({1-[(morpholin-4-yl)methyl]cyclopropyl}methyl)pyrimidine-5-carboxamide], the half-inhibitory concentration (IC50) at IRAK4 is 250 to 1000 nM; at HPK1, below 50 nM. Besides, the “IRAK4/HPK1 Ratio” value at HPK1 is on record as “C (C=>50)”.
